Measurements as given in US6624202B2, “Inhibitors of copper-containing amine oxidases” (priority 2000, dated 2003).
Structures can show the parent of a compound that is named as a salt. Where two headings read alike, the source gives them in different places.

Experiments:
[1] = target: T1, Recombinant human VAP-1 SSAO (Homo sapiens, UniProt Q16853); assay: In vitro inhibition of VAP-1 SSAO activity (coupled colourimetric method); format: biochemical; conditions: for IC50: 1 mM benzylamine, 1 h at 37° C.; for Selectivity for VAP-1 SSAO over MAO: ratio of total rat MAO IC50 to human VAP-1 SSAO IC50
T1 sequence (Q16853 1-763): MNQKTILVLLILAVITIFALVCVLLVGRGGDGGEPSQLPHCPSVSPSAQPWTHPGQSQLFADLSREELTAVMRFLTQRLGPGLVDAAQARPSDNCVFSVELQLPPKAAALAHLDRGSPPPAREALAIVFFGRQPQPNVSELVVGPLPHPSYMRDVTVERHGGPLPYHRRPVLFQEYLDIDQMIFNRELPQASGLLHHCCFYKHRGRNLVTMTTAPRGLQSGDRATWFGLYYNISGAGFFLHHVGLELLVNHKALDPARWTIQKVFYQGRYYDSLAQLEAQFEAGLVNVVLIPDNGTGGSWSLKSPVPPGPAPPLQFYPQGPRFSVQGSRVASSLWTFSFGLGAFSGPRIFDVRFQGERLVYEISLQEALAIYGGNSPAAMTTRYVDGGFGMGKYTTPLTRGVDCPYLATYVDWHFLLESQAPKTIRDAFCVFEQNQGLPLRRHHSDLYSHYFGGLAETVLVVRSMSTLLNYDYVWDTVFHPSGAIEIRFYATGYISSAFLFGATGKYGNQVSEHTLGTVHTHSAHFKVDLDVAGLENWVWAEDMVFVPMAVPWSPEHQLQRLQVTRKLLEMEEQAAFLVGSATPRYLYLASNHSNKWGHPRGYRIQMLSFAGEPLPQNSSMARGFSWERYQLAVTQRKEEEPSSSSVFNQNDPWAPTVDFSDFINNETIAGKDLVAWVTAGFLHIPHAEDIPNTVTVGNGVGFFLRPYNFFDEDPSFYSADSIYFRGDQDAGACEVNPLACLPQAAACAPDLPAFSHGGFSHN
Description: VAP-1 SSAO activity was measured using the coupled colourimetric method essentially as described for monoamine oxidase and related enzymes (Holt, A., et al., Anal. Biochem. 244:384-392 (1997)). Recombinant human VAP-1 SSAO expressed in Chinese Hamster Ovary (CHO) cells was used as a source of VAP-1 SSAO for activity measurements. […] These cells and their culture have previously been described (Smith, D. J., et al., J. Exp. Med. 188:17-27 (1998)). A cell lysate was prepared by suspending approximately 3.6×10^8 cells in 25 ml lysis buffer (150 mM NaCl, 10 mM Tris-Base pH 7.2, 1.5 mM MgCl2, 1% NP40) and incubating at 4° C. overnight on a rotating table. The lysate was clarified by centrifugation at 18000 g for 5 min at room temperature and the supernatant used directly in the assay. The VAP-1 SSAO assay was performed in 96 well microtitre plates as follows. To each well was added a predetermined amount of inhibitor if required. […] Controls lacked inhibitor. The inhibitor was in a total volume of 20 μl in water. The following reagents were then added. 0.2 M potassium phosphate buffer pH 7.6 to a total reaction volume of 200 μl, 45 μl of freshly made chromogenic solution containing 1 mM 2,4-dichlorophenol, 500 μM 4-aminoantipyrine and 4 U/ml horseradish peroxidase and an amount of CHO cell lysate containing VAP-1 SSAO that caused a change of 0.6 A490 per h. […] The plates were incubated for 30 min at 37° C. and the background absorbance measured at 490 nm using a Wallac Victor II multilabel counter. To initiate the enzyme reaction 20 μl 10 mM benzylamine (final concentration=1 mM) was added and the plate incubated for 1 h at 37° C. The increase in absorbance, reflecting VAP-1 SSAO activity, was measured at 490 nm. Inhibition was presented as percent inhibition compared to control after correcting for background absorbance and IC50 values calculated using GraphPad Prism.

[2] = lysate of CHO cells expressing recombinant human VAP-1 SSAO, read-out: VAP-1 SSAO inhibitory activity IC50

| SMILES | melting point [°C] | IC50 ([1]; VAP-1 SSAO inhibitory activity IC50, lysate of CHO cells expressing recombinant human VAP-1 SSAO) [nM] | Selectivity for VAP-1 SSAO over MAO [1] | IC50 [1, 2] [nM] |
| --- | --- | --- | --- | --- |
| C[C@@H]([C@H](O)c1ccccc1)N(C)N (as salt: maleate) [Compound 1, (1R,2S)-2-(1-Methylhydrazino)-1-phenyl-1-propanol hydrogenmaleate] | 111 to 113 | – | – | – |
| C[C@H](C(O)c1ccccc1)N(C)N (single isomer, unassigned) [Compound 48] | 112 to 114 | 280 | 110 | – |
| NNCC(O)c1ccccc1 (single isomer, unassigned) [Compound 49] | 99 to 104 | – | 70 | 140 |
| NNCC(O)c1ccccc1 (single isomer, unassigned) [Compound 50] | 98 to 103 | – | 283 | 35 |
